This passage reports IC50 results from patent publication US9758537B2 (Achillion Pharmaceuticals, Inc., priority 2014, dated 2017).

The structures appear in SMILES notation.

Sequence of Human factor D (P00746 26-253): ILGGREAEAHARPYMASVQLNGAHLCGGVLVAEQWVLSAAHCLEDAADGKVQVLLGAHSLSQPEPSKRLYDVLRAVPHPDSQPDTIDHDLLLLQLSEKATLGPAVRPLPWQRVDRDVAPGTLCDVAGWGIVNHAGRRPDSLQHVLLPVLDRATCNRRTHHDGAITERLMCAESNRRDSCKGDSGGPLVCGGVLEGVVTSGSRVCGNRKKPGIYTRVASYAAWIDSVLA

This test addresses Human factor D (Homo sapiens (Human), UniProt P00746). Nature of the test: Human Factor D Assay. The class given is biochemical. The conditions noted are these: human factor D 80 nM, substrate Z-L-Lys-SBzl, DTNB, OD405. As to the method:
Human factor D (purified from human serum, Complement Technology, Inc.) at 80 nM final concentration is incubated with test compound at various concentrations for 5 minutes at room temperature in 50 mM Tris, 1M NaCl, pH 7.5. A synthetic substrate Z-L-Lys-SBzl and DTNB (Ellman's reagent) are added to final concentrations of 10 μM each. The increase in color is recorded at OD405 nm in a microplate in kinetic mode over 30 minutes with 30 second time points in a […]. IC50 values are calculated by non-linear regression from the percentage of inhibition of complement factor D activity as a function of test compound concentration.
`CC(C)(C)OC(=O)N1CCc2c(n(CC(=O)N3C[C@H](F)C[C@H]3C(=O)NCc3cccc(Cl)c3F)c3ccccc23)C1` [Compound 67, tert-butyl 9-(2-((2S,4R)-2-(3-chloro-2-fluorobenzylcarbamoyl)-4-fluoropyrrolidin-1-yl)-2-oxoethyl)-3,4-dihydro-1H-pyrido[3,4-b]indole-2(9H)-carboxylate]: the IC50 (as a rule, the midpoint of a concentration-inhibition curve) was greater than 10000 nM.

In the case of `O=C(NCc1cccc(Cl)c1F)[C@@H]1C[C@@H](F)CN1C(=O)Cn1c2c(c3ccccc31)CCNC2` [Compound 68, (2S,4R)-N-(3-chloro-2-fluorobenzyl)-1-(2-(3,4-dihydro-1H-pyrido[3,4-b]indol-9(2H)-yl)acetyl)-4-fluoropyrrolidine-2-carboxamide], the IC50 is greater than 10000 nM.

As for `CCOC(=O)CC(=O)N1CCc2c(n(CC(=O)N3C[C@H](F)C[C@H]3C(=O)NCc3cccc(Cl)c3F)c3ccccc23)C1` [Compound 70, ethyl 3-(9-(2-((2S,4R)-2-(3-chloro-2-fluorobenzylcarbamoyl)-4-fluoropyrrolidin-1-yl)-2-oxoethyl)-3,4-dihydro-1H-pyrido[3,4-b]indol-2(9H)-yl)-3-oxopropanoate], the concentration for half-maximal inhibition (IC50) was greater than 10000 nM.

`CC(=O)n1cc(C(=O)C(=O)N2C[C@H](F)C[C@H]2C(=O)NCc2cccc(Cl)c2F)c2ccccc21` [Compound 71, (2S,4R)-1-(2-(1-acetyl-1H-indol-3-yl)-2-oxoacetyl)-N-(3-chloro-2-fluorobenzyl)-4-fluoropyrrolidine-2-carboxamide]: the IC50 was greater than 10000 nM.

Regarding `O=C(O)CCC(=O)N1CCc2c(n(CC(=O)N3C[C@H](F)C[C@H]3C(=O)NCc3cccc(Cl)c3F)c3ccccc23)C1` [Compound 72, 4-(9-(2-((2S,4R)-2-(3-chloro-2-fluorobenzylcarbamoyl)-4-fluoropyrrolidin-1-yl)-2-oxoethyl)-3,4-dihydro-1H-pyrido[3,4-b]indol-2(9H)-yl)-4-oxobutanoic acid], the IC50 is greater than 10000 nM.

Compound `O=C(NCc1cccc(Cl)c1F)[C@@H]1C[C@@H](F)CN1C(=O)Cn1nc(-c2cn[nH]c2)c2ccncc21` [Compound 73, (2S,4R)-1-(2-(3-(1H-pyrazol-4-yl)-1H-pyrazolo[3,4-c]pyridin-1-yl)acetyl)-N-(3-chloro-2-fluorobenzyl)-4-fluoropyrrolidine-2-carboxamide] returned a half-maximal inhibitory concentration (IC50) of less than 1000 nM.

For the compound `C=C(F)c1nn(CC(=O)N2C[C@H](F)C[C@H]2C(=O)NCc2cccc(Cl)c2F)c2cnccc12` [Compound 74, (2S,4R)-N-(3-chloro-2-fluorobenzyl)-4-fluoro-1-(2-(3-(1-fluorovinyl)-1H-pyrazolo[3,4-c]pyridin-1-yl)acetyl)pyrrolidine-2-carboxamide], the IC50 was less than 1000 nM.

Turning to `O=C(NCc1cccc(Cl)c1F)[C@@H]1C[C@@H](F)CN1C(=O)Cn1nc(-c2cnc[nH]2)c2ccncc21` [Compound 75, (2S,4R)-1-(2-(3-(1H-imidazol-5-yl)-1H-pyrazolo[3,4-c]pyridin-1-yl)acetyl)-N-(3-chloro-2-fluorobenzyl)-4-fluoropyrrolidine-2-carboxamide], the IC50 is less than 1000 nM.

On to `NS(=O)(=O)c1cn(CC(=O)N2C[C@H](F)C[C@H]2C(=O)NCc2cccc(Cl)c2F)c2ccccc12` [Compound 76, (2S,4R)-N-(3-chloro-2-fluorobenzyl)-4-fluoro-1-(2-(3-sulfamoyl-1H-indol-1-yl)acetyl)pyrrolidine-2-carboxamide], for which the IC50 is less than 1000 nM.

`NC(=O)c1nn(CC(=O)N2[C@@H]3C[C@@H]3C[C@H]2C(=O)Nc2cccc(-c3ccccc3Cl)c2F)cc1Br` [Compound 77, (1R,3S,5R)-2-(2-(4-bromo-3-carbamoyl-1H-pyrazol-1-yl)acetyl)-N-(2′-chloro-2-fluorobiphenyl-3-yl)-2-azabicyclo[3.1.0]hexane-3-carboxamide] came in with an IC50 of less than 1000 nM.

`CC(=O)c1cn(CC(=O)N2C[C@H](F)C[C@H]2C(=O)Nc2cccc(-c3ccccc3Cl)c2F)c2c(C#N)cccc12` [Compound 79, (2S,4R)-1-(2-(3-acetyl-7-cyano-1H-indol-1-yl)acetyl)-N-(2′-chloro-2-fluorobiphenyl-3-yl)-4-fluoropyrrolidine-2-carboxamide]: the IC50 is less than 1000 nM.

Turning to `NC(=O)c1nn(CC(=O)N2C[C@H](F)C[C@H]2C(=O)Nc2cccc(-c3cc(F)c(F)cc3Cl)c2F)c2ccccc12` [Compound 80, 1-(2-((2S,4R)-2-(2′-chloro-2,4′,5′-trifluorobiphenyl-3-ylcarbamoyl)-4-fluoropyrrolidin-1-yl)-2-oxoethyl)-1H-indazole-3-carboxamide], the IC50 was less than 1000 nM.

The compound `CC(=O)c1cn(CC(=O)N2C[C@H](F)C[C@H]2C(=O)Nc2cccc(Br)n2)c2ccc(C3(N4C(=O)c5ccccc5C4=O)CC3)cc12` [Compound 81, (2S,4R)-1-(2-(3-acetyl-5-(1-(1,3-dioxoisoindolin-2-yl)cyclopropyl)-1H-indol-1-yl)acetyl)-N-(6-bromopyridin-2-yl)-4-fluoropyrrolidine-2-carboxamide] registered an IC50 of less than 1000 nM.

Consider `CC(=O)c1cn(CC(=O)N2C[C@H](F)C[C@H]2C(=O)Nc2cccc(-c3cc(F)c(F)cc3Cl)c2F)c2ccccc12` [Compound 82, (2S,4R)-1-(2-(3-acetyl-1H-indol-1-yl)acetyl)-N-(2′-chloro-2,4′,5′-trifluorobiphenyl-3-yl)-4-fluoropyrrolidine-2-carboxamide], for which the IC50 was less than 1000 nM.

In turn, `NC(=O)c1nn(CC(=O)N2C[C@H](F)C[C@H]2C(=O)Nc2cccc(-c3cc(F)c(F)cc3Cl)c2F)c2cnccc12` [Compound 83, 1-(2-((2S,4R)-2-(2′-chloro-2,4′,5′-trifluorobiphenyl-3-ylcarbamoyl)-4-fluoropyrrolidin-1-yl)-2-oxoethyl)-1H-pyrazolo[3,4-c]pyridine-3-carboxamide] yielded an IC50 of less than 1000 nM.

The compound `CC(=O)n1cc(CC(=O)N2C[C@H](F)C[C@H]2C(=O)Nc2cccc(-c3ccccc3Cl)c2F)c2ccsc21` [Compound 90, (2S,4R)-1-(2-(6-acetyl-6H-thieno[2,3-b]pyrrol-4-yl)acetyl)-N-(2′-chloro-2-fluorobiphenyl-3-yl)-4-fluoropyrrolidine-2-carboxamide] showed an IC50 of less than 1000 nM.

Turning to `CC(=O)Nc1cccc2c1c(C(C)=O)cn2CC(=O)N1C[C@H](F)C[C@H]1C(=O)Nc1cccc(-c2ccccc2Cl)c1F` [Compound 91, (2S,4R)-1-(2-(4-acetamido-3-acetyl-1H-indol-1-yl)acetyl)-N-(2′-chloro-2-fluorobiphenyl-3-yl)-4-fluoropyrrolidine-2-carboxamide], the IC50 was greater than 10000 nM.

The compound `NC(=O)c1nn(CC(=O)N2C[C@H](F)C[C@H]2C(=O)Nc2cccc(-c3ccc(F)c(F)c3Cl)c2F)c2ccccc12` [Compound 92, 1-(2-((2S,4R)-2-(2′-chloro-2,3′,4′-trifluorobiphenyl-3-ylcarbamoyl)-4-fluoropyrrolidin-1-yl)-2-oxoethyl)-1H-indazole-3-carboxamide] showed an IC50 of less than 1000 nM.

As for `CC(=O)c1cn(CC(=O)N2C[C@H](F)C[C@H]2C(=O)Nc2cccc(-c3ccc(F)c(F)c3Cl)c2F)c2ccccc12` [Compound 93, (2S,4R)-1-(2-(3-acetyl-1H-indol-1-yl)acetyl)-N-(2′-chloro-2,3′,4′-trifluorobiphenyl-3-yl)-4-fluoropyrrolidine-2-carboxamide], the IC50 is less than 1000 nM.
